Source: EPA's ToxRefDB 2

Key:
rat [1] = settings: Subchronic oral toxicity in rodents, fischer, Feed, dose end: 14 week, group: systemic
mouse [2] = settings: Subchronic oral toxicity in rodents, b6c3f1, Feed, dose end: 14 week, group: systemic
mouse [3] = settings: Carcinogenicity; b6c3f1; Oral; Gavage/Intubation; dose end: 90 week; group: systemic; systemic / pathology microscopic / liver / carcinoma + systemic / in life observation / clinical signs / alopecia + systemic / in life …
rat [4] = settings: Carcinogenicity; other; Oral; Gavage/Intubation; dose end: 113 week; group: systemic; systemic / in life observation / body weight / body weight gain + systemic / in life observation / clinical signs / nasal discharge + …
mouse [5] = settings: Reproduction/developmental toxicity screening test, other, Injection, Subcutaneous, dose end: 1 PND
mouse [6] = settings: Carcinogenicity; other; Oral; Water; dose end: 18 week; group: systemic; systemic / pathology microscopic / lung / mixed tumor nos
mouse [7] = settings: Subchronic oral toxicity in rodents, BALB/c, Water, dose end: 141 day, group: systemic, systemic / pathology microscopic / liver / hemangioma + systemic / pathology microscopic / liver / hemangiosarcoma + systemic / pathology …
mouse [8] = settings: Combined chronic toxicity/carcinogenicity, cd1, Oral, Diet, dose end: 104 week, group: systemic
mouse [9] = settings: Carcinogenicity, cd1, Oral, Diet, dose end: 85 week, group: systemic
rat [10] = settings: Multigenerational reproductive toxicity study, other, Oral, Feed, dose end: 2 generation
dog [11] = settings: Chronic toxicity, beagle, Oral, Capsule, dose end: 52 week, group: systemic
rat [12] = settings: Combined chronic toxicity/carcinogenicity, wistar, Oral, Feed, dose end: 103 week, group: systemic
rabbit = settings: Prenatal developmental toxicity study, new zealand white, Oral, Gavage/Intubation, dose end: 18 GD
rat [13] = settings: Multigenerational reproductive toxicity study, sprague dawley, Oral, Feed, dose end: 3 generation
rat [14] = settings: Prenatal developmental toxicity study, other, Oral, Gavage/Intubation, dose end: 15 GD
dog [15] = settings: Chronic toxicity; beagle; Oral; Capsule; dose end: 33 week; group: systemic; systemic / hematology / hematocrit (hct) / hematocrit (hct) + systemic / hematology / hemoglobin (hgb) / hemoglobin (hgb) + systemic / organ…
rat [16] = settings: Chronic toxicity; other; Oral; Feed; dose end: 26 week; group: systemic; systemic / in life observation / body weight / body weight gain + systemic / in life observation / food consumption / food consumption + …
dog [17] = settings: Sub-acute repeat dose toxicity; beagle; Injection; Intravenous; dose end: 1 month; group: systemic; systemic / hematology / erythrocyte (rbc) count differential / erythrocyte (rbc) + systemic / hematology / hematocrit (hct) / hematocrit (…
rat [18] = settings: Developmental neurotoxicity study, sprague dawley, Inhalation, Whole-Body, dose end: 63 PND, group: cannot be grouped
rat [19] = settings: Developmental neurotoxicity study; wistar; Inhalation; Whole-Body; dose end: 98 PND; group: cannot be grouped; systemic / in life observation / body weight / offspring (pup) weight
rat [20] = settings: Developmental neurotoxicity study, wistar, Inhalation, Whole-Body, dose end: 81 PND, group: cannot be grouped
rat [21] = settings: Developmental neurotoxicity study; sprague dawley; Inhalation; Whole-Body; dose end: 21 PND; group: cannot be grouped; developmental / developmental malformation / general / [other] + systemic / in life observation / body weight / offspring (pup) weight + …
mouse [22] = settings: Developmental neurotoxicity study; cd1; Inhalation; Whole-Body; dose end: 20 PND; group: cannot be grouped; systemic / in life observation / body weight / offspring (pup) weight gain + systemic / in life observation / clinical signs / grip strength
rat [23] = settings: Developmental neurotoxicity study; wistar; Inhalation; Whole-Body; dose end: 119 PND; group: cannot be grouped; systemic / in life observation / body weight / offspring (pup) weight
[24] = systemic / pathology microscopic / liver / vacuolization cytoplasmic + systemic / organ weight / liver / nos + systemic / pathology gross…
[25] = systemic / organ weight / liver / absolute + systemic / organ weight / liver / relative to body weight + systemic / pathology gross / liver…
[26] = systemic / organ weight / liver / absolute + systemic / organ weight / liver / relative to body weight + systemic / pathology microscopic / …
[27] = group: developmental, developmental / offspring survival late / [other] / [other]
[28] = group: maternal, reproductive / offspring survival early / dead fetuses / dead fetuses
[29] = group: offspring, systemic / pathology microscopic / liver / [other] + systemic / pathology gross / full gross necropsy / hemangiosarcoma
[30] = group: offspring, systemic / pathology microscopic / liver / [other] + systemic / pathology microscopic / liver / hemangioma + systemic / pathology …
[31] = systemic / in life observation / mortality / mortality + systemic / pathology microscopic / adrenal gland / amyloid deposition + systemic / …
[32] = group: offspring, developmental / offspring survival late / viability index / viability index + systemic / in life observation / body weight / offspring (pup…
[33] = group: offspring, systemic / in life observation / body weight / offspring (pup) weight + systemic / in life observation / body weight / offspring (pup) …
[34] = group: parental, systemic / in life observation / body weight / body weight gain
[35] = group: parental, systemic / in life observation / body weight / body weight gain + systemic / in life observation / body weight / body weight + systemic / in…
[36] = group: reproductive, reproductive / reproductive performance / mating / mating
[37] = systemic / in life observation / body weight / body weight gain + systemic / in life observation / food consumption / food consumption + …
[38] = systemic / organ weight / spleen / nos + systemic / organ weight / spleen / relative to body weight
[39] = group: developmental, developmental / developmental malformation / bone / fused + developmental / developmental malformation / bone / supernumerary
[40] = group: maternal, reproductive / reproductive performance / resorptions / resorptions
[41] = group: offspring, systemic / in life observation / body weight / offspring (pup) weight
[42] = group: parental, systemic / in life observation / body weight / body weight
[43] = group: reproductive, reproductive / offspring survival early / birth index / live birth index
[44] = group: developmental, developmental / developmental malformation / bone / [other] + developmental / developmental malformation / bone / delayed ossification + …
[45] = group: maternal, systemic / in life observation / body weight / body weight + systemic / in life observation / body weight / body weight gain + systemic / in…
[46] = systemic / in life observation / body weight / body weight gain + systemic / in life observation / clinical signs / motor activity
[47] = systemic / in life observation / body weight / body weight gain + systemic / in life observation / clinical signs / motor activity + …
[48] = systemic / in life observation / body weight / body weight + systemic / in life observation / body weight / body weight gain + developmental…

## ClC(Cl)C(Cl)Cl [1,1,2,2-Tetrachloroethane]
Rat [1]; systemic / in life observation / body weight / body weight gain + systemic / pathology microscopic / liver / vacuolization cytoplasmic
  LOAEL: 40 mg/kg/day
Rat [1]; systemic / in life observation / body weight / body weight gain + systemic / pathology microscopic / liver / vacuolization cytoplasmic + …
  NOAEL: 20 mg/kg/day
Rat [1]; [24]
  LEL: 20 mg/kg/day
  NEL: < 20 mg/kg/day
Mouse [2]; [25]
  LEL: 80 mg/kg/day
  NEL: < 80 mg/kg/day
Mouse [2]; [26]
  LOAEL: 160 mg/kg/day
  NOAEL: 80 mg/kg/day
Mouse [3]
  LEL: 142 mg/kg/day
  LOAEL: > 284 mg/kg/day
  NEL: < 142 mg/kg/day
  NOAEL: ≥ 284 mg/kg/day
Rat [4]
  LEL: 43 mg/kg/day
  LOAEL: > 76 mg/kg/day
  NEL: < 43 mg/kg/day
  NOAEL: ≥ 76 mg/kg/day

## CN(C)N=O [N-Nitrosodimethylamine]
Mouse [5]; [27]
  LEL: 1 mg/kg/day
  LOAEL: > 50 mg/kg/day
  NEL: < 1 mg/kg/day
  NOAEL: ≥ 50 mg/kg/day
Mouse [5]; [28]
  LEL: 20 mg/kg/day
  LOAEL: > 50 mg/kg/day
  NEL: 10 mg/kg/day
  NOAEL: ≥ 50 mg/kg/day
Mouse [5]; [29]
  LEL: 1 mg/kg/day
  NEL: < 1 mg/kg/day
Mouse [5]; [30]
  LOAEL: > 50 mg/kg/day
  NOAEL: ≥ 50 mg/kg/day
Mouse [6]
  LEL: 0.0667 mg/kg/day
  LOAEL: > 0.0667 mg/kg/day
  NEL: < 0.0667 mg/kg/day
  NOAEL: ≥ 0.0667 mg/kg/day
Mouse [7]
  LEL: 1.33 mg/kg/day
  LOAEL: > 1.33 mg/kg/day
  NEL: < 1.33 mg/kg/day
  NOAEL: ≥ 1.33 mg/kg/day

## CC(C)=CC1C(C(=O)OCc2coc(Cc3ccccc3)c2)C1(C)C (stereo not drawn) [Resmethrin]
Mouse [8]; systemic / in life observation / mortality / mortality
  LOAEL: 84.3 mg/kg/day
Mouse [8]; systemic / in life observation / mortality / mortality + systemic / pathology microscopic / liver / adenoma/carcinoma combined + systemic / …
  NOAEL: 43.4 mg/kg/day
Mouse [8]; [26]
  LEL: 43.4 mg/kg/day
  NEL: < 43.4 mg/kg/day
Mouse [9]; [31]
  LOAEL: 138 mg/kg/day
  NEL: 36.3 mg/kg/day
  NOAEL: 71.3 mg/kg/day
Mouse [9]; systemic / organ weight / adrenal gland / absolute + systemic / organ weight / adrenal gland / relative to body weight + systemic / organ …
  LEL: 71.3 mg/kg/day
Rat [10]; [32]
  LOAEL: 70.8 mg/kg/day
  NOAEL: 34.8 mg/kg/day
Rat [10]; [33]
  LEL: 34.8 mg/kg/day
  NEL: 17.4 mg/kg/day
Rat [10]; [34]
  NEL: 34.8 mg/kg/day
  NOAEL: 34.8 mg/kg/day
Rat [10]; [35]
  LEL: 70.8 mg/kg/day
  LOAEL: 70.8 mg/kg/day
Rat [10]; [36]
  LEL: 70.8 mg/kg/day
  LOAEL: 70.8 mg/kg/day
  NEL: 34.8 mg/kg/day
  NOAEL: 34.8 mg/kg/day
Dog [11]; [37]
  NEL: 108 mg/kg/day
  NOAEL: 108 mg/kg/day
Dog [11]; systemic / in life observation / body weight / body weight gain + systemic / pathology microscopic / eye / cataract, subcapsular
  LOAEL: 430 mg/kg/day
Dog [11]; systemic / in life observation / body weight / body weight gain + systemic / pathology microscopic / eye / cataract, subcapsular + systemic…
  LEL: 430 mg/kg/day
Rat [12]; systemic / organ weight / liver / absolute + systemic / in life observation / body weight / body weight + systemic / in life observation / …
  LOAEL: 233 mg/kg/day
Rat [12]; systemic / organ weight / liver / absolute + systemic / organ weight / liver / relative to body weight + systemic / organ weight / spleen / …
  NOAEL: 47 mg/kg/day
Rat [12]; [38]
  LEL: 47 mg/kg/day
  NEL: < 47 mg/kg/day
rabbit; [39]
  LEL: 100 mg/kg/day
  LOAEL: 100 mg/kg/day
  NEL: 30 mg/kg/day
  NOAEL: 30 mg/kg/day
rabbit; [40]
  LEL: 100 mg/kg/day
  LOAEL: 100 mg/kg/day
  NEL: 30 mg/kg/day
  NOAEL: 30 mg/kg/day
Rat [13]; [41]
  LEL: 25 mg/kg/day
  LOAEL: 25 mg/kg/day
  NEL: < 25 mg/kg/day
  NOAEL: < 25 mg/kg/day
Rat [13]; [42]
  LEL: 40 mg/kg/day
  LOAEL: 40 mg/kg/day
  NEL: 25 mg/kg/day
  NOAEL: 25 mg/kg/day
Rat [13]; [43]
  LEL: 40 mg/kg/day
  LOAEL: > 62.5 mg/kg/day
  NEL: 25 mg/kg/day
  NOAEL: ≥ 62.5 mg/kg/day
Rat [14]; [44]
  LEL: 80 mg/kg/day
  LOAEL: 80 mg/kg/day
  NEL: 40 mg/kg/day
  NOAEL: 40 mg/kg/day
Rat [14]; [45]
  LEL: 80 mg/kg/day
  LOAEL: 80 mg/kg/day
  NEL: 40 mg/kg/day
  NOAEL: 40 mg/kg/day

## CN(C)[C@@H]1C(=O)C(C(N)=O)=C(O)[C@@]2(O)C(=O)C3=C(O)c4c(O)cccc4[C@@](C)(O)[C@H]3C[C@@H]12 [Tetracycline]
Dog [15]
  LEL: 500 mg/kg/day
  LOAEL: > 500 mg/kg/day
  NEL: 250 mg/kg/day
  NOAEL: ≥ 500 mg/kg/day
Rat [16]
  LEL: 125 mg/kg/day
  LOAEL: > 500 mg/kg/day
  NEL: < 125 mg/kg/day
  NOAEL: ≥ 500 mg/kg/day
Dog [17]
  LEL: 40 mg/kg/day
  LOAEL: > 40 mg/kg/day
  NEL: < 40 mg/kg/day
  NOAEL: ≥ 40 mg/kg/day

## Cc1ccccc1 [Toluene]
Rat [18]; [46]
  LEL: 8000 ppm
  NEL: < 8000 ppm
Rat [18]; [47]
  LOAEL: > 12000 ppm
  NOAEL: ≥ 12000 ppm
Rat [19]
  LEL: 1800 ppm
  LOAEL: > 1800 ppm
  NEL: < 1800 ppm
  NOAEL: ≥ 1800 ppm
Rat [20]; systemic / in life observation / body weight / body weight + systemic / in life observation / body weight / body weight gain
  NEL: 600 ppm
Rat [20]; [48]
  LEL: 1000 ppm
  LOAEL: > 1200 ppm
  NOAEL: ≥ 1200 ppm
Rat [21]
  LEL: 12000 ppm
  LOAEL: > 12000 ppm
  NEL: 8000 ppm
  NOAEL: ≥ 12000 ppm
Mouse [22]
  LEL: 2000 ppm
  LOAEL: > 2000 ppm
  NEL: 400 ppm
  NOAEL: ≥ 2000 ppm
Rat [23]
  LEL: 1200 ppm
  LOAEL: > 1200 ppm
  NEL: < 1200 ppm
  NOAEL: ≥ 1200 ppm
